Results: article PMC6085107 (Pain, 2018)
Entries after “also recorded” stand apart in the source; their conditions may differ.

How the values were obtained:
[1] = target: His-nNOS1-299 and GST-NOS1AP400-506 (Homo sapiens, UniProt P29475); experiment: AlphaScreen nNOS-NOS1AP binding disruption; conditions: 1X PBS, BSA (1mg/mL), Tween-20 (0.1%), 0–200 μM, n = 4–9
NMDA-induced cell death = conditions: ref [29]; cited from earlier work
p38 MAPK = conditions: rats, cited from earlier work; for p38 MAPK activation in microglia: 5 minutes post treatment, returned to basal levels after 20 minutes, ref [46]
[2] = test system: cold response times, C57BL/6J mice; experiment: Paclitaxel-induced cold allodynia; type: in vivo
[3] = test system: mechanical paw withdrawal thresholds, C57BL/6J mice; experiment: PSNL-induced mechanical allodynia; type: in vivo
[4] = test system: cold response times, C57BL/6J mice; experiment: PSNL-induced cold allodynia; type: in vivo
ERK1/2 = experiment: Western blot pERK1/2 in lumbar spinal cord; type: in vivo, mouse; conditions: n = 5
[5] = test system: paclitaxel-induced neuropathic pain; conditions: administered acutely; ref [27]; cited from earlier work
primary cortical neurons = experiment: Glutamate/glycine-induced cell death in primary cortical neurons; type: cell-based, Sprague-Dawley rat; conditions: MK-801 20 μM; n = 3–4; p < 0.01 for each comparison
[6] = test system: mechanical paw withdrawal thresholds, C57BL/6J mice; experiment: Paclitaxel-induced mechanical allodynia; type: in vivo; conditions: paclitaxel 4 mg/kg i.p. on day 0, 2, 4, 6; starting on day 7 and ongoing on day 15; p < 0.0001
[7] = test system: p53 phosphorylated at Ser15; experiment: Western blot pSer15-p53 in lumbar spinal cord; type: in vivo, mouse; conditions: paclitaxel 4 mg/kg i.p. on day 0, 2, 4, 6, n = 5, p = 0.002
His-nNOS_(1-299) = His-nNOS_(1-299) (UniProt P29476-1 1-299); experiment: AlphaScreen or HTRF
Chain of His-nNOS_(1-299) (P29476 1-299): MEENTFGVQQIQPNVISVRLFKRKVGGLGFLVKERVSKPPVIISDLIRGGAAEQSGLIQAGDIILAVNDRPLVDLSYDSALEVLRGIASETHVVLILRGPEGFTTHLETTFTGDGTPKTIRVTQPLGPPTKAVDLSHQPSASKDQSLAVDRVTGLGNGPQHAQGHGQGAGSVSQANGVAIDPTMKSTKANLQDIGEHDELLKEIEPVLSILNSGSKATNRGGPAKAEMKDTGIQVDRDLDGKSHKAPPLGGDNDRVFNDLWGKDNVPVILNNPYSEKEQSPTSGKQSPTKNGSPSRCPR

[8] = test system: NR1 and NR2B; astrocytes and microglia in the lumbar spinal cord; conditions: direct intrathecal injections; ref [2]; cited from earlier work
nNOS = conditions: ref [6], [29]; cited from earlier work

Chain of His-nNOS1-299 and GST-NOS1AP400-506 (P29475 1-299): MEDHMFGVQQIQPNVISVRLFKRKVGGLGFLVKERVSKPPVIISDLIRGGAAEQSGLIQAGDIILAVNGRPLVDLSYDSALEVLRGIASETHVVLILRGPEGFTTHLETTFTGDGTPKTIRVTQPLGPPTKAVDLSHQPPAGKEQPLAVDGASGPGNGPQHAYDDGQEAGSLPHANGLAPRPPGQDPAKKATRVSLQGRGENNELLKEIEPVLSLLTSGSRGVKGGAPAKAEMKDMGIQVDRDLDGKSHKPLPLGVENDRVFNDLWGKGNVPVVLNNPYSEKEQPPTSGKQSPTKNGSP

In the case of GRKKRRQRRRGESVYAGQW [TAT-cp4GESV], the “disruption of nNOS-NOS1AP binding” value [1] is given as “Neither TAT-cp4GESV nor TAT-GESVΔ1 disrupted the interactions; also recorded: Neither TAT-GESVΔ1 nor TAT-cp4GESV disrupted the binding” and the NMDA-induced cell death (NMDA-induced cell death) is given as “did not disrupt NMDA activation-induced cell death”.

In the case of CN[C@H](CC(=O)O)C(=O)O [NMDA, N-methyl-D-aspartate], the “spinal p38 MAPK activation” value (p38 MAPK; administration directly to the spinal cord, ref [45]) is given as “induced p38 MAPK activation”.

For GRKKRRQRRRYAGQWGES [TAT-GESVΔ1], the “disruption of nNOS-NOS1AP binding” value [1] was “Neither TAT-cp4GESV nor TAT-GESVΔ1 disrupted the interactions; also recorded: Neither TAT-GESVΔ1 nor TAT-cp4GESV disrupted the binding”, the “cold response times vs saline (i.t.) in paclitaxel-treated mice” value ([2]; 10 nmol i.t., n = 6, TAT-GESV p = 0.039, TAT-GESVΔ1 p = 1) was “did not differ from saline” and the “ipsilateral paw withdrawal thresholds vs saline, PSNL” value ([3]; 10 nmol i.t., acute, n = 6–10, TAT-GESV p < 0.05, TAT-GESVΔ1 p = 1) was “did not differ”. For the same molecule, the “cold responsiveness, repeated dosing, PSNL” value ([4]; 10 nmol i.t. once daily, 8 consecutive days, n = 5–10, TAT-GESV vs saline p < 0.05, TAT-GESVΔ1 p > 0.25 for each comparison) was “did not reliably alter cold responsiveness relative to saline (i.t.), MK-801 (i.t.) or TAT-GESV (i.t.)”, the “ipsilateral cold-response times vs saline, PSNL” value ([4]; 10 nmol i.t., acute, n = 6–10, TAT-GESV p < 0.01, TAT-GESVΔ1 p = 1) was “did not differ” and the “contralateral cold responsiveness, PSNL or sham” value ([4]; acute i.t., p = 0.39 (dose), p = 0.491 (drug), p = 0.882 (interaction)) was “neither TAT-GESV nor TAT-GESVΔ1 altered mechanical or cold responsiveness in the paw contralateral to PSNL or sham surgery”. For the same molecule, the “pERK1/2 elevation vs saline (i.t.), paclitaxel-treated mice” value (ERK1/2; 5 nmol i.t., 20 min post injection, p > 0.4) was “neither TAT-GESV nor TAT-GESVΔ1 (5 nmol, i.t.) altered pERK1/2 elevation”.

In the case of Oc1c(Cl)cc(Cl)cc1CNc1ccc2n[nH]nc2c1 [IC87201], the “NMDAR-evoked nNOS-NOS1AP association/p38 MAPK-dependent cell death” value (NMDA-induced cell death) is listed as “blocked” and the “suppression of paclitaxel-induced neuropathic pain” value [5] is listed as “efficacious in suppressing paclitaxel-induced neuropathic pain”.

In the case of C[C@]12N[C@H](Cc3ccccc31)c1ccccc12 [MK-801], the “cell death vs all other groups exposed to glutamate/glycine” value (primary cortical neurons) is reported as “Cell death was lower”, the “sustained mechanical efficacy, day 4–8, repeated dosing, PSNL” value ([3]; MK-801 5 nmol i.t. once daily, p < 0.001 for each comparison) is reported as “similarly increased mechanical paw withdrawal thresholds relative to saline (i.t.) or TAT-GESVΔ1 (i.t.) with sustained efficacy” and the “cold sensitivity vs saline, repeated dosing, PSNL” value ([4]; MK-801 5 nmol i.t. once daily, 8 consecutive days, n = 5–10, p = 0.072) is reported as “approached significance”.

For GRKKRRQRRR [TAT], the “disruption of nNOS-NOS1AP binding” value [1] was “did not interfere with the binding between His-nNOS1-299 and GST-NOS1AP400-506”.

For substance P, the “p38 MAPK activation in microglia” value (p38 MAPK) is listed as “induced p38 MAPK activation in microglia 5 minutes post treatment”.

For CC(=O)O[C@H]1C(=O)[C@@]2(C)[C@H]([C@H](OC(=O)c3ccccc3)[C@]3(O)C[C@H](OC(=O)[C@H](O)[C@@H](NC(=O)c4ccccc4)c4ccccc4)C(C)=C1C3(C)C)[C@]1(OC(C)=O)CO[C@@H]1C[C@@H]2O [Paclitaxel], the “mechanical paw withdrawal thresholds after paclitaxel vs vehicle” value [6] was “lowered mechanical paw withdrawal thresholds”, the “cold response times after paclitaxel vs vehicle” value ([2]; paclitaxel 4 mg/kg i.p. on day 0, 2, 4, 6, starting on day 7 and ongoing on day 15, p < 0.0001) was “increased cold response times” and the “pSer15-p53 levels, paclitaxel-treated vs vehicle-treated mice” value [7] was “increased lumbar spinal cord levels of pSer15-p53”. For the same molecule, the “pERK1/2 levels, paclitaxel-treated vs cremophor-vehicle treated mice” value (ERK1/2; paclitaxel 4 mg/kg i.p. on day 0, 2, 4, 6, lumbar spinal cord, saline i.t., p < 0.0001) was “elevated pERK1/2 levels”.

In the case of formalin, the “p38 MAPK activation in microglia” value (p38 MAPK) is given as “induced p38 MAPK activation in microglia 5 minutes post treatment”.

For O=C(O)c1ccc(NCc2cc(Cl)cc(Cl)c2O)cc1O [ZL006], the “suppression of paclitaxel-induced neuropathic pain” value [5] is listed as “efficacious in suppressing paclitaxel-induced neuropathic pain”.

Work on GRKKRRQRRRYAGQWGESV [L-TAT-GESV] yielded an IC50 (His-nNOS_(1-299)) of 8.47 µM.

B1: CCL-1: chemokines C-C motif ligand 1 (protein, UniProt P22362 24-96, looked up)
C-C motif chemokine 1: KSMQVPFSRCCFSFAEQEIPLRAILCYRNTSSICSNEGLIFKLKRGKEACALDTVGWVQRHRKMLRHCPSKRK
In the case of B1, the “NR1 and NR2B phosphorylation, glial activation in lumbar spinal cord” value [8] is given as “induced phosphorylation of NR1 and NR2B and activated astrocytes and microglia in the lumbar spinal cord”.

B2: nNOS1-99: nNOS fragment disrupting nNOS-NOS1AP interactions (protein, UniProt P29475 1-99, looked up, fragment)
chain: MEDHMFGVQQIQPNVISVRLFKRKVGGLGFLVKERVSKPPVIISDLIRGGAAEQSGLIQAGDIILAVNGRPLVDLSYDSALEVLRGIASETHVVLILRG
For B2, the “enzymatic activity of nNOS or production of NO” value (nNOS) is given as “does not alter the enzymatic activity of nNOS or the production of NO”.
